{"source": "paper PMC11474028", "about": "“Lipopeptide antibiotics disrupt interactions of undecaprenyl phosphate with UptA” (Proceedings of the National Academy of Sciences of the …, 2024)", "key": {"[1]": {"tested_on": "UptA R112E/R118E", "experiment": "Native MS of C55-P binding to UptA double mutant R112E/R118E", "set-up": "species or system Bacillus subtilis", "details": "5 µM protein, 10 µM C55-P, pH 8.02, 0.05% LDAO, 200 mM ammonium acetate, 100 V; mean of three biological replicates", "text": "(§1) Conserved arginine residues in the putative membrane reentrant loops of E. coli DedA proteins YqjA (R130) and YghB (R136) are important for the cellular role of these proteins ([36]). […] How these residues impact substrate interactions, however, is not known. Based on the model structure of UptA predicted by AlphaFold, the R112 residue should engage Q64 while R118 is able to form hydrogen bonds with E32, H119, and W146 to potentially stabilize the membrane reentrant loops (Fig. 3A). To test for the impact of these residues on C55-P binding, we generated the E32A, Q64A, R112A, R118A, H119A, and W146A UptA single mutants. After purification of the proteins, using the same protocol as the wild type (WT) (Materials and Methods and SI Appendix, Fig. S5), we equilibrated aliquots of each protein variant (5 µM) with C55-P (10 µM) and recorded spectra using the same instrument settings. […] We additionally generated a double mutant R112E/R118E in which the polarity of both native arginine residues in the wild type are reversed.\n(§2) Expression and purification of UptA\n(§3) Plasmids were used to transform chemically competent E. coli C43(DE3) cells (Lucigen) and selected on LB/Agar containing 100 μg/ml ampicillin at 37 °C. Single colonies were used to inoculate 60 mL LB containing 100 μg/ml ampicillin and were grown at 37 °C overnight for 16 h. […]"}, "[2]": {"tested_on": "UptA H119A", "experiment": "Native MS of C55-P binding to UptA mutant H119A", "set-up": "species or system Bacillus subtilis", "details": "5 µM protein, 10 µM C55-P, pH 8.02, 0.05% LDAO, 200 mM ammonium acetate, collisional activation 100 V; three biological replicates", "text": "as §1, §2, §3"}, "[3]": {"tested_on": "MraY", "format": "binding, Aquifex aeolicus", "details": "MraY (2.5 µM) and C55-P (10 µM), molar ratio 1:4, pH 8.0 vs pH 5.0; negative control", "text": "UptA is a member of the DedA family of transporters whose cellular functions are potentially driven by proton-motive force and provide conditional fitness to bacteria under alkaline conditions ([25], [26], [36]). […] To this end, we equilibrated C55-P with UptA at a protein/ligand molar ratio of 1:4 in a buffer of the same composition but at pH 8.0 and 5.0. […] As a negative control, we tested for pH sensitivity of C55-P binding to MraY, the latter being the downstream enzyme in the peptidoglycan pathway that couples UM5 to C55-P. To this end, we equilibrated MraY and C55-P at a molar ratio of 1:4 in a buffer of pH 8.0 and pH 5.0."}}, "note": "“Also recorded” adds a separate entry of the source."}
{"smiles": "CC(C)=CCC/C(C)=C/CC/C(C)=C/CC/C(C)=C\\CC/C(C)=C\\CC/C(C)=C\\CC/C(C)=C\\CC/C(C)=C\\CC/C(C)=C\\CC/C(C)=C\\CC/C(C)=C\\COP(=O)(O)O", "note": "[C55-P, undecaprenyl phosphate]", "values": [{"measurement": "reduction in the intensity of C55-P binding compared to wild type, R112E/R118E", "setting": "[1]", "result": 63, "unit": "%"}, {"measurement": "reduction in C55-P binding intensity compared to wild type, H119A (in words)", "setting": "[2]", "result": "modest reduction"}, {"measurement": "pH sensitivity of C55-P binding to MraY (in words)", "setting": "[3]", "result": "no pH-dependency in C55-P binding by MraY; also recorded: no significant difference in the intensity of C55-P bound to MraY at pH 8.0 and at pH 5.0"}]}
